Peptide text beside a SMILES is read from it.
Tests used:
[1] = test system: Pseudomonas syringae pv. phaseolicola in tobacco leaves; experiment: Leaf infiltration of bacteria with peptide inhibitor, cell death; format: in vivo; details: incompatible interaction (non-host hypersensitive response); inhibitor syringe-infiltrated with bacteria into leaf
[2] = test system: Pseudomonas syringae pv. tomato in tomato leaves; experiment: as above; format: in vivo; details: compatible interaction; inhibitor syringe-infiltrated with bacteria into leaf
Procedure: (§1) A leaf of the susceptible plant of interest is syringe or vacuum infiltrated with a concentration of virulent bacteria sufficient to cause disease and tissue death. A portion of the same leaf or another leaf on the same plant of similar position and age is infiltrated with bacteria and the tetrapeptide inhibitor. Usually a 0.5 mM concentration of inhibitor is sufficient to inhibit disease but may vary according to pathogen and host plant. Disease is permitted to develop under conditions suitable for the plant/pathogen combination. Symptoms are viewed over the course of the experiment to assess the level of symptom (death) inhibition by the caspase inhibitor compared to the control. The affect of the caspase inhibitor on bacterial growth can be assayed by taking samples of the tissue and performing growth curves of the pathogen as described in the literature.
(§2) Host plant leaves are infiltrated with bacteria at a suitable concentration (10^4 -10^8 colony forming units per ml) to cause disease. Leaves of the same age and position on the same or a different plant are infiltrated with bacteria of the same concentration with the desired peptide inhibitor added. All solutions are infiltrated directly into the plant leaf lamina with a syringe. Disease symptoms in the form of dead areas of cells are quantified by time lapse color image capture and lesion area measurements determined by digital image analysis. Samples of the control tissue and inhibitor treated tissues are analyzed on a time course basis for bacterial growth rate.
(§3) Pathogen growth is measured by grinding leaf disc samples in a suitable buffer followed by serial dilutions and plating of samples onto agar plates to determine the relative number of colonies produced. Colony counts are then related back to the original undiluted samples. Growth values are reported as means of several samples with appropriate statistical measures of mean separation. Differential effects of the inhibitors thus are measured both in terms of the amount of apoptotic cell death induced (symptoms) and by the effect of altering cell death induction on the amount of pathogen growth in the tissue.

[3] = test system: Pseudomonas syringae pv. tabaci in tobacco leaves; experiment: as above; format: in vivo; details: compatible interaction; inhibitor syringe-infiltrated with bacteria into leaf
Procedure: as §1, §2, §3

[4] = test system: Pseudomonas syringae pv. tomato (avrPto) in tomato (Pto/Pto) leaves; experiment: as above; format: in vivo; details: incompatible interaction (host specific gene for gene hypersensitive response); inhibitor syringe-infiltrated with bacteria into leaf
[5] = biological target: T1, caspase-3 (CPP32, apopain, Yama) (Homo sapiens, UniProt P42574); details: 0.1 uM inhibitor; 100 ul reaction, 30 units caspase-3, 0.2 mM DEVD-p-nitroanilide; cited from earlier work
T1 construct: purchased BIOMOL Research Laboratories, Inc. AK-700
T1 sequence (P42574 29-175 limits assumed): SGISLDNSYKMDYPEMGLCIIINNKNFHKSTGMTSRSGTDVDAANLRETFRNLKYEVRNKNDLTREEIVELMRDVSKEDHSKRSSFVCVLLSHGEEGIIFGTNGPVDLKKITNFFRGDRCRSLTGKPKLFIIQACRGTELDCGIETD
T1 sequence (P42574 176-277 limits assumed): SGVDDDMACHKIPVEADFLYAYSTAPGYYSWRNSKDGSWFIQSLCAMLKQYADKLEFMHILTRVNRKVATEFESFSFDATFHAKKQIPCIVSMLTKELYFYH

[6] = test system: Pseudomonas syringae pv. syringae in tomato leaves; experiment: Leaf infiltration of bacteria with peptide inhibitor, cell death; format: in vivo; details: compatible interaction; inhibitor syringe-infiltrated with bacteria into leaf
Procedure: as §1, §2, §3

[7] = test system: Pseudomonas syringae pv. angulata in tobacco leaves; experiment: as above; format: in vivo; details: compatible interaction; inhibitor syringe-infiltrated with bacteria into leaf
Procedure: as §1, §2, §3

[8] = test system: Xanthamonas campestris pv tomato in tomato leaves; experiment: as above; format: in vivo; details: compatible interaction; inhibitor syringe-infiltrated with bacteria into leaf
Procedure: as §1, §2, §3

[9] = test system: Pseudomonas syringae pv. phaseolicola in bean leaves; experiment: as above; format: in vivo; details: compatible interaction; inhibitor syringe-infiltrated with bacteria into leaf
Procedure: as §1, §2, §3

tobacco = experiment: Blocking of apoptotic death or disease in tobacco; format: in vivo
bean = experiment: Blocking of apoptotic death or disease in bean; format: in vivo

| Compound | blocking of cell death [1] | blocking of cell death [2] | blocking of cell death [3] | blocking of cell death [4] | also measured |
| --- | --- | --- | --- | --- | --- |
| CC(=O)N[C@@H](Cc1ccc(O)cc1)C(=O)N[C@H](C(=O)N[C@@H](C)C(=O)N[C@H](C=O)CC(=O)O)C(C)C [Ac-YVAD-CHO] | blocks cell death but less well than others | blocks cell death but less well than others | blocks cell death but less well than others | – | – |
| Ac-Leu-Arg-Arg-aldehyde | – | – | does not block cell death | – | – |
| CSCC[C@H](NC(=O)[C@H](CC(=O)O)NC(C)=O)C(=O)N[C@@H](CCC(N)=O)C(=O)N[C@H](C=O)CC(=O)O [Ac-DMQD-CHO] (Ac-DMQD-aldehyde) | blocks cell death | blocks cell death | blocks cell death | – | – |
| Ac-DQMD-aldehyde | – | – | – | blocks cell death | – |
| CC(=O)N[C@@H](CC(=O)O)C(=O)N[C@@H](CCC(=O)O)C(=O)N[C@H](C(=O)N[C@H](C=O)CC(=O)O)C(C)C [Ac-DEVD-CHO] | blocks cell death | blocks cell death | blocks cell death | blocks cell death | blocking of caspase-3 activity [5]: completely blocked; blocking of cell death [6]: blocks cell death; blocking of cell death [7]: blocks cell death; blocking of cell death [8]: blocks cell death; blocking of cell death [9]: blocks cell death |
| CC(=O)N[C@@H](CC(C)C)C(=O)N[C@@H](CC(C)C)C(=O)N[C@H](C=O)CCCNC(=N)N [leupeptin] | – | – | – | – | blocking apoptotic death or disease (tobacco): not effective; blocking apoptotic death or disease (bean): not effective |

Source: patent publication US6310273A, “Inhibiting apoptosis in plants using a baculovirus p35 protease inhibitor gene” (The Regents of the University of California, priority 1999, dated 2001)
